We go through 47 compounds from publication PMC5877551, “Structure-Activity Relationships of Thiazolyl Resorcinols, Potent and Selective Inhibitors of Human Tyrosinase” (International Journal of Molecular Sciences, 2018).

The structures appear in SMILES notation.

Assay [1] addresses T1, human tyrosinase (hTyr) (Homo sapiens, UniProt P14679).
T1 sequence (P14679 19-476 limits assumed): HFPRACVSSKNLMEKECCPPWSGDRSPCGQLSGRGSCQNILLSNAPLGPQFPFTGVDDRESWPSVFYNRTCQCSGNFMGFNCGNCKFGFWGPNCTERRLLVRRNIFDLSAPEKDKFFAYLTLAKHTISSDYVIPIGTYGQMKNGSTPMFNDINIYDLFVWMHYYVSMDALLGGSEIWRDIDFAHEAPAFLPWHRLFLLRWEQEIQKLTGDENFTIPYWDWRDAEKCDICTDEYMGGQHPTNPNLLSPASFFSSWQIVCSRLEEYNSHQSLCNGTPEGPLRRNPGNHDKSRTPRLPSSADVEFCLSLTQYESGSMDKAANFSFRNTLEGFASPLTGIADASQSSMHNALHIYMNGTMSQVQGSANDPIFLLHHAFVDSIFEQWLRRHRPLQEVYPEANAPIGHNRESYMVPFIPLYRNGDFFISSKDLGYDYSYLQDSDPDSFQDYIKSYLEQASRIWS
Description: L-Dopa oxidase activity of hTyr, dose-response profiles (MBTH assay). It is filed as biochemical. Details: A truncated, His-tagged form of hTyr (hTyr-DHis) was expressed in HEK 293 cells; His tag; made in house; host or cells: HEK 293 cells. Particulars: for EC50: dopa oxidase activity of hTyr, 1 mM L-Dopa, phosphate buffer pH 7.0, 37 °C, values above 3 mM given as >3000; for inhibition of hTyr, result in words: comparison of EC50 values; for factor by which inhibitory activity is impaired when thiazole is replaced by another ring: versus the corresponding thiazole compound (W547, W548). On the procedure:
A truncated, His-tagged form of hTyr (hTyr-DHis) was expressed in HEK 293 cells and purified by metal affinity chromatography on Ni^2+-Sepharose as described by Cordes et al..
The L-Dopa oxidase activity of hTyr was assayed by a modification of the method of Winder and Harris. In this assay, the reaction product, L-dopaquinone, is trapped by MBTH (3-methyl-2-benzothiazoline hydrazone) to yield a stable pink dye that can be quantified at 490 nm. Reaction mixtures in 100 mM phosphate buffer, pH 7.0, were set up in microtiter plates together with appropriate blanks to account for nonenzymatic oxidation of substrate and product. After thermal equilibration at 37 °C for 10 min, the reactions were started by adding enzyme and monitored for 10–20 min at 490 nm. Absorption values were read at 15 s intervals and digitally stored for later analysis. Dose-response curves were obtained by testing various concentrations of each inhibitor in triplicate at a fixed substrate (L-Dopa) concentration of 1 mM.

Assay [2] has as its target T1, human tyrosinase (hTyr). Particulars: in vitro; cited from earlier work.

Consider `Oc1ccc(-c2csc(Nc3ncccn3)n2)cc1` [W452], for which the EC50 on human tyrosinase (hTyr) [1] is 19 ± 1 µM. The same measure, in the same setting: to `O=C(O)c1ccc(Nc2nc(-c3ccc(O)cc3O)cs2)cc1` [W529] belongs 2.6 ± 0.1 µM. Regarding `CN(c1nc(-c2ccc(O)cc2O)cs1)C1CCCCC1` [W646], at human tyrosinase (hTyr) [1], the “inhibition of hTyr, result in words” value is “only moderately reduced inhibitory activity” and the EC50 worked out at 40 ± 2 µM. Turning to `Cc1cc(C)cc(Nc2nc(-c3ccc(O)cc3O)cs2)c1` [W537], at human tyrosinase (hTyr) [1], the “inhibition of hTyr, result in words” value is on record as “markedly impair inhibition” and a half-maximal effect (EC50) was put at 160 ± 2 µM. At human tyrosinase (hTyr) [1], `Oc1ccc(-c2csc(NC3CCCCC3)n2)c(O)c1` [W694] yielded an EC50 of 16 ± 1 µM. Still for that read-out and setting: to `Oc1ccccc1-c1csc(Nc2ncccn2)n1` [W539] belongs > 3000 µM. On the same count and under the same terms, to `CNc1nc(-c2ccc(O)cc2O)cs1` [W366] belongs 33 ± 1 µM; to `CC(C)Nc1nc(-c2ccc(O)cc2O)cs1` [W533], 6.2 ± 0.2 µM; to `CCCCCCc1ccc(O)cc1O` [W072, 4-hexylresorcinol, reference compound], 93 ± 21 µM. The same measure, in the same setting: to `OCc1ccc(Nc2nc(-c3ccc(O)cc3O)cs2)cc1` [W693] belongs 5.7 ± 0.2 µM. As to `CC(C)(C)c1ccc(C(=O)Nc2nc(-c3ccc(O)cc3O)cs2)cc1` [W669], at human tyrosinase (hTyr) [1], the “inhibition of hTyr, result in words” value is recorded as “markedly impair inhibition” and the EC50 amounted to 81 ± 5 µM. `CC(C)(O)c1ccc(C(=O)Nc2nc(-c3ccc(O)cc3O)cs2)cc1` [W680]: the EC50 at human tyrosinase (hTyr) [1] stood at 3.2 ± 0.2 µM. On to `Oc1ccc(-c2csc(NCCc3ccccc3)n2)c(O)c1` [W496], for which, at human tyrosinase (hTyr) [1], the “inhibition of hTyr, result in words” value is “markedly impair inhibition” and the midpoint of the response, the EC50, lay at 140 ± 6 µM. The like results for `O=C(NC1CCCCC1)c1csc(-c2ccc(O)cc2O)n1` [W701] were, in that order, “abolishes activity” and > 3000 µM.

`CC(C)(C)Nc1nc(-c2ccc(O)cc2O)cs1` [W534] registered an EC50 on human tyrosinase (hTyr) [1] of 25 ± 1 µM.

In the case of `CCC(=O)Nc1nc(-c2ccc(O)cc2F)cs1` [W480], the EC50 on human tyrosinase (hTyr) [1] is > 3000 µM.

On human tyrosinase (hTyr) [1], `CCCCCCNc1nc(-c2ccc(O)cc2O)cs1` [W688] came in with an EC50 of 60 ± 2 µM. Still for that read-out and setting: to `Nc1nc(-c2ccc(O)cc2O)cs1` [W495, 4-(2-amino-1,3-thiazol-4-yl) resorcinol] belongs 51 ± 2 µM. `CN(C(=O)C1CCCCC1)c1nc(-c2ccc(O)cc2O)cs1` [W605]: on human tyrosinase (hTyr) [1], the “inhibition of hTyr, result in words” value is given as “strongly” and the response was half-maximal at 1400 ± 160 µM (EC50). The like results for `Cc1sc(NC(=O)C2CCCCC2)nc1-c1ccc(O)cc1O` [W625] were, in that order, “abolished inhibition altogether” and > 3000 µM.

Turning to `O=C(NC1CCCCC1)c1nc(-c2ccc(O)cc2O)cs1` [W607], at human tyrosinase (hTyr) [1], the “inhibition of hTyr, result in words” value is listed as “only moderately increases EC50” and the EC50 is 56 ± 3 µM.

`CCCNc1nc(-c2cc(O)cc(O)c2)cs1` [W624]: the EC50 at human tyrosinase (hTyr) [1] was > 3000 µM. The same measure, in the same setting: to `CCCCCCC(=O)Nc1nc(-c2ccc(O)cc2O)cs1` [W695] belongs 15 ± 1 µM. As to `CCCC(=O)Nc1nc(-c2cc(CCC)c(O)cc2O)cs1` [W681], at human tyrosinase (hTyr) [1], the “inhibition of hTyr, result in words” value is “abolished inhibition altogether” and the EC50 is > 3000 µM. Turning to `O=C(Nc1nc(-c2ccc(O)cc2O)cs1)C1CCCCC1` [W548], the EC50 on human tyrosinase (hTyr) [1] turned out to be 4.6 ± 0.2 µM. Consider `Oc1ccc(Nc2nc(-c3ccc(O)cc3O)cs2)cc1` [W542], for which the EC50 at human tyrosinase (hTyr) [1] came to 9.8 ± 0.3 µM. The same measure, in the same setting: for `CCCC(=O)Nc1nc(-c2ccc(O)cc2O)cs1` [W577] the value was 3.5 ± 0.5 µM. On the same count and under the same terms, to `CC(C)(C)C(=O)Nc1nc(-c2ccc(O)cc2O)cs1` [W687] belongs 1.4 ± 0.1 µM; to `O=C(Nc1nc(-c2ccc(O)cc2O)cs1)c1ccccc1` [W498], 2.5 ± 0.1 µM; to `O=C(Nc1nc(-c2ccc(O)cc2O)cs1)c1ccc(CO)cc1` [W619], 1.6 ± 0.4 µM.

Turning to `CC(=O)Nc1nc(-c2ccc(O)cc2O)cs1` [W547], on human tyrosinase (hTyr) [1], the midpoint of the response, the EC50, lay at 3.2 ± 0.6 µM. Still for that read-out and setting: to `CCCCc1ccc(O)cc1O` [W039, 4-butylresorcinol, reference compound] belongs 21 ± 4 µM.

Compound `CCCNc1nc(-c2ccc(O)cc2O)cs1` [W538] gave an EC50 at human tyrosinase (hTyr) [1] of 5.6 ± 1.4 µM. Regarding `O=C(Cc1ccc(CO)cc1)Nc1nc(-c2ccc(O)cc2O)cs1` [W696], the EC50 on human tyrosinase (hTyr) [1] came out at 6.5 ± 0.2 µM. Same read-out and setting: for `OCCCCCCNc1nc(-c2ccc(O)cc2O)cs1` [W692] the value was 6.9 ± 0.2 µM.

As to `Oc1ccc(O)cc1` [hydroquinone], the “hTyr inhibition compared with thiazolyl resorcinols, in words” value at human tyrosinase (hTyr) [2] is listed as “clearly inferior to thiazolyl resorcinols”. Take `Oc1cccc(O)c1` [W089, resorcinol]: the EC50 at human tyrosinase (hTyr) [1] is > 3000 µM. On the same count and under the same terms, for `CC(C)C(=O)Nc1nc(-c2ccc(O)cc2O)cs1` [W630, Thiamidol] the value was 1.1 ± 0.1 µM; for `Oc1cccc(-c2csc(Nc3ncccn3)n2)c1O` [W568], > 3000 µM. With `CCCCc1ccc(O)c(C)c1O` [W639], at human tyrosinase (hTyr) [1], the “inhibition of hTyr, result in words” value is given as “markedly impaired inhibition” and the EC50 came to 220 ± 10 µM. On to `Oc1ccc(-c2csc(Nc3ccccc3)n2)c(O)c1` [W367], for which, on human tyrosinase (hTyr) [1], the EC50 is 10 ± 1 µM.

Consider `CC(=O)Nc1nc(-c2ccc(O)cc2O)c[nH]1` [W633], for which, at human tyrosinase (hTyr) [1], the EC50 amounted to 750 ± 60 µM and the “factor by which inhibitory activity is impaired when thiazole is replaced by another ring” value is “at least 200”. For `OCCc1ccc(O)cc1O` [W785], on human tyrosinase (hTyr) [1], the “inhibition of hTyr, result in words” value was “markedly impaired inhibition” and the EC50 worked out at 560 ± 90 µM. As to `O=C(Nc1cccc(-c2ccc(O)cc2O)c1)C1CCCCC1` [W632], at human tyrosinase (hTyr) [1], the EC50 is > 3000 µM and the “factor by which inhibitory activity is impaired when thiazole is replaced by another ring” value is listed as “at least 200”. `OC[C@H]1O[C@@H](Oc2ccc(O)cc2)[C@H](O)[C@@H](O)[C@@H]1O` [arbutin]: the “hTyr inhibition compared with thiazolyl resorcinols, in words” value at human tyrosinase (hTyr) [2] is recorded as “clearly inferior to thiazolyl resorcinols”. On to `Oc1ccc(-c2csc(Nc3ncccn3)n2)c(O)c1` [W311], for which, on human tyrosinase (hTyr) [1], the “inhibition of hTyr, result in words” value is “mediates efficient inhibition” and the EC50 came out at 3.2 ± 0.1 µM. `O=C(O)c1ccc(Nc2nc(-c3ccc(O)cc3O)cs2)cc1O` [W570] came in with an EC50 at human tyrosinase (hTyr) [1] of 3.5 ± 0.1 µM.
